Data: patent publication US20160038490A1, “COMPOSITIONS AND METHODS FOR TREATING DYSPROLIFERATIVE DISEASES” (ANGION BIOMEDICA CORP., priority 2012, published 2016)
Where two headings read alike, the source gives them in different places.

Assays:
SK-BR-3 cells [1] = assay: ATRA metabolism in breast cancer cells; type: cell-based; settings: 2×10^6 SK-BR-3 cells treated with 100 nM ATRA, no CYP26 inhibitor
Procedure: To directly test whether ATRA induces its own metabolism, we treated 2×10^6 SK-BR-3 cells with 100 nM ATRA and determined the ATRA concentration after 24 hours. Significant metabolism of ATRA was found (FIG. 4), with the ATRA concentration dropping to 6 nM after 24 hrs.

SK-BR-3 cells [2] = assay: Cell proliferation, Cell Titer Glo, checkerboard design; type: cell-based; settings: for EC50: Homo sapiens
Procedure: The effect of all-trans retinoic acid (ATRA), a CYP26 inhibitor and their combination was studied using two HER2+ RARA+ breast cancer cell lines: AU565 and SK-BR-3. Cells were plated in a 96-well plate and treated with compounds in a “checkerboard” design. After 7 days the cell proliferation was determined using the Cell Titer Glo reagent (Promega).
(§1) This provides a strong rationale for the simultaneous targeting of both signaling pathways in breast cancer patients.

SK-BR-3 cells [3] = assay: Apoptosis assay (Caspase 3/7 assay); type: cell-based
Source text: as §1

[4] = tested on: SK-BR-3 breast cancer cells; assay: Breast cancer xenograft study; settings: SK-BR-3 xenograft, immuno-compromised mice; CYP26 inhibitor 10 mg/kg po qd×5, Lapatinib 100 mg/kg po qd×5; compared to vehicle
Procedure: Once palpable tumors were established in immuno-compromised mice, animals were randomized to four treatment groups: (1) Vehicle, (2) CYP26 inhibitor (10 mg/kg, po, qd×5), (3) the EGFR/HER2 inhibitor Lapatinib (100 mg/kg, po, qd×5) or (4) the combination of the two (10 mg/kg CYP26 inhibitor and 100 mg/kg Lapatinib).

ATRA concentration after 24 hours (SK-BR-3 cells [1]) [nM] | EC50 (SK-BR-3 cells [2]; 168 h, SK-BR-3, 7 days, ATRA alone, estimated, read-out: EC50, inhibition of cell growth) [µM] | EC50 (SK-BR-3 cells [2]; SK-BR-3, lapatinib alone, read-out: EC50, inhibition of cell growth in the absence of ATRA) [µM] | SMILES | effect on cell growth (SK-BR-3 cells [2]; SK-BR-3, lapatinib/ATRA experiment) | effect on Caspase 3/7 activity (SK-BR-3 cells [3]; SK-BR-3, synergy analyzed with Bliss additivity model) | tumor progression / tumor growth inhibition [4] | induction of Caspase 3/7 activity (SK-BR-3 cells [3]; SK-BR-3, 24 hours incubation, absence of ATRA) [fold]
6 | ~0.04 | – | CC1=C(/C=C/C(C)=C/C=C/C(C)=C/C(=O)O)C(C)(C)CCC1 [ATRA, all-trans retinoic acid] | inhibited breast cancer cell growth | small effect | – | –
– | – | 0.064 | CS(=O)(=O)CCNCc1ccc(-c2ccc3ncnc(Nc4ccc(OCc5cccc(F)c5)c(Cl)c4)c3c2)o1 [lapatinib] | – | – | Markedly reduced tumor progression | ~2
